Where a name gives a salt, the structure may show the parent alone. Read-outs that look alike come from different tables or passages of the source. Values belong to the compound of their own block, whether it stands above or below them.
Legend:
Format in all cases: physicochemical
[1] = Thermal stability of solid samples (3 days at 100° C., hplc); conditions: for increase in organic impurities: hplc, by area
[2] = Hygroscopicity / water content (Karl Fischer analysis)
Text: The present invention provides (S)-7-[(4,4′-bipiperidin- 1-yl)carbonyl]-2,3,4,5-tetrahydro-4-methyl-3-oxo-1H-1,4-benzodiazepine-2-acetic acid, hydrochloride, formula (I), as a novel material, and, in particular, as a pharmaceutically acceptable form. The material crystallizes preferably with one mole of HCl, and appears to exist in a generally anhydrous form. Although small amounts of water may be detected by Karl Fischer analysis, this is generally less than 1-2% w/w of the drug substance, and it appears to be consistent irrespective of the storage conditions. […] Accordingly, the hydrochloride salt form offers significant advantages for bulk material consistency, handling, and formulation.

Solubility in water = assay: Solubility in water
[3] = Thermal stability over an extended period (shelf life); conditions: impairs shelf life

increase in organic impurities ([1]; hydrochloride): no increase
Thermal Stability ([1]; hydrochloride): Stable
water detected by Karl Fischer analysis ([2]; consistent irrespective of the storage conditions): 1-2 % w/w
Hygroscopicity (% w/w Karl Fischer analysis) ([2]; t = 0, hydrochloride): 0.9 % w/w
Hygroscopicity (% w/w Karl Fischer analysis) ([2]; t = 21 days, hydrochloride): 0.8 % w/w
solubility in water relative to the zwitterion (Solubility in water): about ten
Compound: CN1Cc2cc(C(=O)N3CCC(C4CCNCC4)CC3)ccc2N[C@@H](CC(=O)O)C1=O [HCl Salt, (S)-7-[(4,4′-bipiperidin-1-yl)carbonyl]-2,3,4,5-tetrahydro-4-methyl-3-oxo-1H-1,4-benzodiazepine-2-acetic acid, hydrochloride]
dissolution and solubility in water (in words) (Solubility in water): enhanced dissolution and solubility in water

Compound: CN1Cc2cc(C(=O)N3CCC(C4CCNCC4)CC3)ccc2N[C@@H](CC(=O)O)C1=O [trifluoroacetate salt]
thermal stability for an extended period [3]: not thermally stable for an extended period

Thermal Stability [1]: some degradation,
increase in organic impurities [1]: impurities by 1.3% (hplc,
water taken up on equilibration ([2]; equilibrating species): about six
hygroscopicity (in words) ([2]; material prepared according to WO 95/18619): hygroscopic
Hygroscopicity (% w/w Karl Fischer analysis) ([2]; t = 0): 5.6 % w/w
Hygroscopicity (% w/w Karl Fischer analysis) ([2]; t = 21 days): 20.1 % w/w
Compound: CN1Cc2cc(C(=O)N3CCC(C4CCNCC4)CC3)ccc2N[C@@H](CC(=O)O)C1=O [Zwitterion, (S)-7-[(4,4′-bipiperidin-1-yl)carbonyl]-2,3,4,5-tetrahydro-4-methyl-3-oxo-1H-1,4-benzodiazepine-2-acetic acid]

Source: patent publication US6335330B1, “Crystalline pharmaceutical product” (SmithKline Beecham Corporation, priority 1996, dated 2002)
